Results: patent US11530229B2, “Cyano cyclobutyl compounds for CBL-B inhibition and uses thereof” (Nurix Therapeutics, Inc., priority 2019, dated 2022)
Like-named read-outs stand apart in the source and are kept apart here.

How the values were obtained:
[1] = test system: primary human total T-cells; experiment: T-cell activation, CD25 surface staining, Biological Example 2; type: cell-based; conditions: 48 hours, fold change over baseline; for fold induction at 0.3 µM: 0.3 μM inhibitor; for fold induction at 1 µM: 1 μM inhibitor; for fold induction at 3 µM: 3 μM inhibitor
Cbl-b = Cbl-b (Homo sapiens (Human), UniProt Q13191); experiment: Cbl-b displacement assay (Cbl-b inhibition assay), Biological Example 1; type: binding
Protocol: Candidate compounds were evaluated for their ability to bind and inhibit Cbl-b, an E3 ubiquitin-protein ligase, as evidenced by their ability to displace a fluorophore-labeled probe (Example 59) bound to Cbl-b.
The ability of candidate compounds to displace a known inhibitor and thereby inhibit Cbl-b activity was measured by monitoring the interaction of Cbl-b with a fluorophore-labeled probe in the presence of the candidate compound. A truncated variant of Cbl-b (UniProt number Q13191; SEQ ID NO:1) containing an Avitag at its N-terminus was co-expressed with BirA biotin ligase and purified using a standard protocol (see Dou et al., Nature Structural and Molecular Biology, 8: 982-987, 2013; Avidity LLC).
Cbl-b Amino Acid Residues 36-427:
Fluorescently-labeled inhibitor probe was synthesized and tagged with BODIPY FL (Example 59). Cbl-b displacement assays were performed in a 384-well plate at room temperature in a 10 μL reaction volume by pre-incubating 0.5 nM Cbl-b or 0.125 nM Cbl-b (final concentration, indicated as “High” and “Low”, respectively) in an assay buffer containing 20 mM HEPES pH 7.5, 150 mM NaCl, 0.01% Triton X-100, 0.01% BSA and 0.5 mM TCEP in the presence of a candidate compound in 1% DMSO (final concentration) for 1 hour. After incubation in the presence of the candidate compound, the plate was incubated for an additional 1 hour in the presence of an approximate EC40 binding saturation consisting of 150 nM fluorescently-labeled inhibitor probe and 2 nM Streptavidin-Terbium (Cisbio) (final concentrations). Following the 1 hour incubation, the plates were read for TR-FRET signal at […] using an Envision plate reader (Perkin Elmer).

[2] = test system: primary human total T-cells; experiment: T-cell activation, IL-2 secretion, Biological Example 2; type: cell-based; conditions: 48 hours, fold change over baseline; for fold induction at 0.3 µM: 0.3 μM inhibitor; for fold induction at 1 µM: 1 μM inhibitor; for fold induction at 3 µM: 3 μM inhibitor
[3] = anti-CD3 and anti-CD28 co-stimulation
[4] = anti-CD3 and anti-CD28 co-stimulation, read-out: CD25 staining CD3/CD28 1 μM
[5] = anti-CD3 stimulation alone, read-out: CD25 staining CD3 1 μM
[6] = 0.125 nM Cbl-b final concentration (Low), read-out: Cbl-b activity IC50 (Low)
[7] = anti-CD3 and anti-CD28 co-stimulation, read-out: IL-2 secretion CD3/CD28 1 μM
[8] = anti-CD3 stimulation alone, read-out: IL-2 secretion CD3 1 μM

Cbl-b, sequence (Q13191 36-427): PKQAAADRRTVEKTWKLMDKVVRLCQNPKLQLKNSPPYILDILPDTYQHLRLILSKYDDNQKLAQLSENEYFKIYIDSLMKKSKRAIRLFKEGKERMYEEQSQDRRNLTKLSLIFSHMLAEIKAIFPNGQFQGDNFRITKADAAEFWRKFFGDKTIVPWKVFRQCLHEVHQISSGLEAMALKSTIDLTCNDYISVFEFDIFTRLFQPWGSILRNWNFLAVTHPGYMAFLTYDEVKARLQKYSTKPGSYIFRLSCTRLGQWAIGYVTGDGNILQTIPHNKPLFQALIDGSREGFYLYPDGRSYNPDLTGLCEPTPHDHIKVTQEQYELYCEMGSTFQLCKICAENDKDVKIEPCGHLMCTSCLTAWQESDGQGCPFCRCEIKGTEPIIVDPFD

Row | Compound | fold induction at 0.3 µM [1, 3] | fold induction at 1 µM [1, 4] | fold induction at 1 µM [1, 5] | fold induction at 3 µM ([1]; anti-CD3 stimulation alone) | IC50 (Cbl-b; [6]) [nM] | fold induction at 0.3 µM [2, 3] | fold induction at 1 µM [2, 7] | fold induction at 1 µM [2, 8] | fold induction at 3 µM ([2]; anti-CD3 stimulation alone) | IC50 (Cbl-b; read-out: IC50 values in the Cbl-b inhibition assay of Biological Example 1) [nM]
1 | Cn1cnnc1C[C@]1(c2cccc(N3Cc4c(cc(CN5CCC6C(C5)C6(F)F)cc4C(F)(F)F)C3=O)c2)C[C@H](C#N)C1 (stereo partly shown) [Compound 27, (1r,3r)-3-(3-(6-((7,7-difluoro-3-azabicyclo[4.1.0]heptan-3-yl)methyl)-1-oxo-4-(trifluoromethyl)isoindolin-2-yl)phenyl)-3-((4-methyl-4H-1,2,4-triazol-3-yl)methyl)cyclobutane-1-carbonitrile] | ≤ 1.24 | ≤ 1.24 | ≤ 1 | ≤ 1 | 2 to 5 | ≤ 15 | ≤ 15 | < 0.4 | 0.4 to 0.85 | –
2 | Cn1cnnc1C[C@]1(c2cccc(N3Cc4c(cc(CN5CCc6ncccc6C5)cc4C(F)(F)F)C3=O)c2)C[C@H](C#N)C1 [Compound 28, (1r,3r)-3-(3-(6-((7,8-dihydro-1,6-naphthyridin-6(5H)-yl)methyl)-1-oxo-4-(trifluoromethyl)isoindolin-2-yl)phenyl)-3-((4-methyl-4H-1,2,4-triazol-3-yl)methyl)cyclobutane-1-carbonitrile] | ≤ 1.24 | ≤ 1.24 | ≤ 1 | ≤ 1 | 2 to 5 | ≤ 15 | ≤ 15 | < 0.4 | < 0.4 | –
3 | Cn1cnnc1C[C@]1(c2cccc(N3Cc4c(cc(CN5CCCOCC5)cc4C(F)(F)F)C3=O)c2)C[C@H](C#N)C1 [Compound 29, (1r,3r)-3-(3-(6-((1,4-oxazepan-4-yl)methyl)-1-oxo-4-(trifluoromethyl)isoindolin-2-yl)phenyl)-3-((4-methyl-4H-1,2,4-triazol-3-yl)methyl)cyclobutane-1-carbonitrile] | 1.24 to 1.39 | 1.24 to 1.39 | > 1.15 | 1 to 1.15 | 2 to 5 | ≤ 15 | ≤ 15 | < 0.4 | 0.4 to 0.85 | –
4 | Cn1cnnc1C[C@]1(c2cccc(N3Cc4c(cc(CN5CCOCC6(CC6)C5)cc4C(F)(F)F)C3=O)c2)C[C@H](C#N)C1 [Compound 30, (1r,3r)-3-(3-(6-((5-oxa-8-azaspiro[2.6]nonan-8-yl)methyl)-1-oxo-4-(trifluoromethyl)isoindolin-2-yl)phenyl)-3-((4-methyl-4H-1,2,4-triazol-3-yl)methyl)cyclobutane-1-carbonitrile] | ≤ 1.24 | ≤ 1.24 | ≤ 1 | 1 to 1.15 | 2 to 5 | ≤ 15 | ≤ 15 | < 0.4 | < 0.4 | –
5 | Cn1cnnc1C[C@]1(c2cccc(N3Cc4c(cc(CNC5CCC(C)(C)C5)cc4C(F)(F)F)C3=O)c2)C[C@H](C#N)C1 (stereo partly shown) [Compound 31, (1r,3r)-3-(3-(6-(((3,3-dimethylcyclopentyl)amino)methyl)-1-oxo-4-(trifluoromethyl)isoindolin-2-yl)phenyl)-3-((4-methyl-4H-1,2,4-triazol-3-yl)methyl)cyclobutane-1-carbonitrile] | > 1.39 | > 1.39 | > 1.15 | > 1.15 | < 1 | > 20 | > 20 | > 0.85 | > 0.85 | < 1
6 | CN(Cc1cc2c(c(C(F)(F)F)c1)CN(c1cccc([C@]3(Cc4nncn4C)C[C@@H](C#N)C3)c1)C2=O)C1CCC(F)(F)C1 (stereo partly shown) [Compound 32, (1r,3r)-3-(3-(6-(((3,3-difluorocyclopentyl)(methyl)amino)methyl)-1-oxo-4-(trifluoromethyl)isoindolin-2-yl)phenyl)-3-((4-methyl-4H-1,2,4-triazol-3-yl)methyl)cyclobutane-1-carbonitrile] | > 1.39 | > 1.39 | > 1.15 | > 1.15 | 2 to 5 | > 20 | > 20 | > 0.85 | > 0.85 | –
7 | CC1CN(Cc2cc3c(c(C(F)(F)F)c2)CN(c2cccc([C@]4(Cc5nncn5C)C[C@@H](C#N)C4)c2)C3=O)CCCO1 (stereo partly shown) [Compound 33, (1r,3r)-3-(3-(6-((2-methyl-1,4-oxazepan-4-yl)methyl)-1-oxo-4-(trifluoromethyl)isoindolin-2-yl)phenyl)-3-((4-methyl-4H-1,2,4-triazol-3-yl)methyl)cyclobutane-1-carbonitrile] | ≤ 1.24 | ≤ 1.24 | ≤ 1 | ≤ 1 | 2 to 5 | ≤ 15 | ≤ 15 | 0.4 to 0.85 | 0.4 to 0.85 | –
8 | CC1CCN(Cc2cc3c(c(C(F)(F)F)c2)CN(c2cccc([C@]4(Cc5nncn5C)C[C@@H](C#N)C4)c2)C3=O)CC(C)O1 (stereo partly shown) [Compound 34, (1r,3r)-3-(3-(6-((2,7-dimethyl-1,4-oxazepan-4-yl)methyl)-1-oxo-4-(trifluoromethyl)isoindolin-2-yl)phenyl)-3-((4-methyl-4H-1,2,4-triazol-3-yl)methyl)cyclobutane-1-carbonitrile] | ≤ 1.24 | ≤ 1.24 | ≤ 1 | ≤ 1 | 2 to 5 | ≤ 15 | ≤ 15 | < 0.4 | 0.4 to 0.85 | –
9 | CC1COCCN(Cc2cc3c(c(C(F)(F)F)c2)CN(c2cccc([C@]4(Cc5nncn5C)C[C@@H](C#N)C4)c2)C3=O)C1 (stereo partly shown) [Compound 35, (1r,3r)-3-(3-(6-((6-methyl-1,4-oxazepan-4-yl)methyl)-1-oxo-4-(trifluoromethyl)isoindolin-2-yl)phenyl)-3-((4-methyl-4H-1,2,4-triazol-3-yl)methyl)cyclobutane-1-carbonitrile] | 1.24 to 1.39 | 1.24 to 1.39 | 1 to 1.15 | 1 to 1.15 | 2 to 5 | 15 to 20 | 15 to 20 | 0.4 to 0.85 | 0.4 to 0.85 | –
10 | CC1CCN(Cc2cc3c(c(C(F)(F)F)c2)CN(c2cccc([C@]4(Cc5nncn5C)C[C@@H](C#N)C4)c2)C3=O)CCO1 (stereo partly shown) [Compound 36, (1r,3r)-3-(3-(6-((7-methyl-1,4-oxazepan-4-yl)methyl)-1-oxo-4-(trifluoromethyl)isoindolin-2-yl)phenyl)-3-((4-methyl-4H-1,2,4-triazol-3-yl)methyl)cyclobutane-1-carbonitrile] | 1.24 to 1.39 | > 1.39 | 1 to 1.15 | 1 to 1.15 | 2 to 5 | ≤ 15 | 15 to 20 | < 0.4 | 0.4 to 0.85 | –
